From article PMC3688948, “Distinctive G Protein-Dependent Signaling by Protease-Activated Receptor 2 (PAR2) in Smooth Muscle: Feedback Inhibition of RhoA by cAMP-Independent PKA” (PLoS ONE, 2013)
Where two headings read alike, the source gives them in different places. Peptide text beside a SMILES is read from it. * marks the point of attachment. Myristoyl = CCCCCCCCCCCCCC(=O)*; Cbz = O=C(OCc1ccccc1)*

What was measured:
[1] = tested on: dispersed gastric smooth muscle cells; conditions: for contraction (decrease in cell length), comparator agonists: other contractile agonists, concentration not given; for effect of inhibitor on sustained (10 min) contraction by PAR2-AP: inhibitor 10 min (U73122 10 µM, ML-9 10 µM, bisindolylmaleimide 1 µM, Y27632 1 µM), then PAR2-AP 1 µM 10 min
Rho kinase = Rho kinase activity (immunokinase assay), PAR2-AP-stimulated or basal; type: cell-based, rabbit; conditions: for basal Rho kinase activity with inhibitor alone / effect of inhibitor on PAR2-AP-induced Rho kinase activity: IKK IV 10 µM; for basal Rho kinase activity with inhibitor alone: MG-132 10 µM or myristoylated PKI 1 µM alone, basal 3125±502 cpm/mg protein, n = four; for effect of inhibitor on PAR2-AP-induced Rho kinase activity: MG-132 10 µM or myristoylated PKI 1 µM, PAR2-AP 1 µM 10 min, freshly dispersed cells, P<0.01
PAR2 [2] = molecular target: T1, PAR2 (Oryctolagus cuniculus, UniProt G1SHU9); type: cell-based, rabbit
T1 construct: Freshly dispersed muscle cells labelled with myo-2-[^3H]inositol were incubated with different concentrations of PAR2-AP for 60 s; endogenous in cells; host or cells: freshly dispersed and primary cultured rabbit gastric smooth muscle cells
T1 sequence (G1SHU9 25-397): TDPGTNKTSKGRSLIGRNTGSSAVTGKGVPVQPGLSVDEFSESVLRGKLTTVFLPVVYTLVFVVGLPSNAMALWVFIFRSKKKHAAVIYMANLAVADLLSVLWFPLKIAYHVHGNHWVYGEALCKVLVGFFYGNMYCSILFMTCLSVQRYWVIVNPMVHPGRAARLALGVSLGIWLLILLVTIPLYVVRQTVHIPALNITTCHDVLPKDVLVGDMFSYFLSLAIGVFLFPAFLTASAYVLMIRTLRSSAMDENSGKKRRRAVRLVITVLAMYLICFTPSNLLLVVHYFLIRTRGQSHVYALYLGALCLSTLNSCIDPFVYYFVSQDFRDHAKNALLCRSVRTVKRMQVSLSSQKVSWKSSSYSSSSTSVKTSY

adenylyl cyclase = experiment: Forskolin-stimulated cAMP formation (adenylyl cyclase activity); type: cell-based, rabbit; conditions: forskolin 10 µM, 10 min, 100 µM isobutyl methyl xanthine; basal 2.8±0.5 pmol/mg protein; n = 4
Experimental: Adenylyl cyclase activity was measured by the formation of cAMP in response to agonists by radioimmunoassay using [^125I]cAMP [18], [21]. One ml (3×10^6 cells/ml) of cell suspension was treated for 60 s with forskolin (10 µM) in the presence of 100 µM isobutylmethyl xanthine, either alone or in combination with PAR2-AP (1 µM). The reaction was terminated with cold 6% trichloroacetic acid (v/v) and vortexed vigorously. After centrifugation, the supernatants were extracted three times with water-saturated diethyl ether to remove the tricholoroacetic acid and the samples were then lyophilized and frozen at –20°C. The samples were reconstituted for radioimmunoassay in 50 µl of 50 mM sodium acetate (pH 6.2) and acetylated with triethylamine/acetic anhydride (2∶1 v/v) for 30 min. […] The results are expressed as pmol of cAMP/mg protein.
Cyclic AMP formation was measured in freshly dispersed muscle cells in the presence of 100 µM isobutylmethylxanthine. Muscle cells were treated with PAR2-AP (1 µM) alone, forskolin (FSK, 10 µM) alone or forskolin plus PAR2-AP (1 µM) for 60 s and cAMP was measured by radioimmunoassay. In some experiments cells were treated with pertussis toxin (PTx, 200 ng/ml) for 60 min, and then treated with forskolin (10 µM) and PAR2-AP (1 µM) for 60 s. Results are expressed as pmol/mg protein.

PAR2 [3] = molecular target: T1, PAR2; experiment: PAR2 expression (western blot); type: cell-based, rabbit; conditions: transfection with PAR2-specific siRNA for 48 h, cultured cells
[4] = tested on: NF-kB/PKA catalytic subunit complex; experiment: Association of PKA catalytic subunit with NF-kB (co-immunoprecipitation); type: cell-based, rabbit; conditions: cells transfected with PAR2-specific siRNA, PAR2-AP 10 min
[5] = molecular target: Protease-activated receptor 2 (PAR2) (rabbit (endogenous in gastric smooth muscle cells))
[6] = inhibitor 10 min (U73122 10 µM, ML-9 10 µM, bisindolylmaleimide 1 µM, Y27632 1 µM) or PTx 200 ng/ml 60 min, then PAR2-AP 1 µM 30 s

## NCCc1c[nH]c2ccc(O)cc12 [5-hydroxytryptamine]
[1]
  contraction (decrease in cell length), comparator agonists: 30±4%

## NC(=O)Nc1sc(-c2ccc(F)cc2)cc1C(N)=O [IKK IV]
Rho kinase; no effect
  basal Rho kinase activity with inhibitor alone: 3021±486 cpm/mg protein
Rho kinase
  effect of inhibitor on PAR2-AP-induced Rho kinase activity: significantly augmented

## CC(C)C[C@@H](C=O)NC(=O)[C@H](CC(C)C)NC(=O)[C@H](CC(C)C)NC(=O)OCc1ccccc1 [MG-132] (Cbz-Leu-Leu-Leu-aldehyde)
Rho kinase; no effect
  basal Rho kinase activity with inhibitor alone: 2859±602 cpm/mg protein
Rho kinase
  effect of inhibitor on PAR2-AP-induced Rho kinase activity: significantly augmented

## O=S(=O)(c1cccc2c(Cl)cccc12)N1CCCNCC1 [ML-9]
[1]; [6]
  effect of inhibitor on initial (30 s) contraction by PAR2-AP: abolished
[1]
  effect of inhibitor on sustained (10 min) contraction by PAR2-AP: not

## COc1ccc2c(c1)CC[C@@H]1[C@@H]2CC[C@]2(C)[C@@H](NCCCCCCN3C(=O)C=CC3=O)CC[C@@H]12 [U73122]
[1]; [6]
  effect of inhibitor on initial (30 s) contraction by PAR2-AP: abolished
[1]
  effect of inhibitor on sustained (10 min) contraction by PAR2-AP: not
PAR2 [2]; U73122 10 µM 10 min, then PAR2-AP 1 µM 60 s, freshly dispersed cells
  inhibition of PAR2-AP-stimulated PI hydrolysis by U73122: abolished
PAR2 [2]; no PAR2-AP, U73122 10 µM 10 min or PTx 200 ng/ml 60 min, basal 520±66 cpm/mg protein, no effect on basal
  PI hydrolysis with inhibitor alone: 485±86 cpm/mg protein

## C[C@@H](N)[C@H]1CC[C@H](C(=O)Nc2ccncc2)CC1 [Y27632]
[1]; [6]
  effect of inhibitor on initial (30 s) contraction by PAR2-AP: not affected
[1]
  effect of inhibitor on sustained (10 min) contraction by PAR2-AP: preferentially blocked
Rho kinase; Y27632 1 µM alone, basal 3363±587 cpm/mg protein, no effect
  basal Rho kinase activity with Y27632 alone: 3025±425 cpm/mg protein

## CC(=O)OCC[N+](C)(C)C [acetylcholine]
[1]
  contraction (decrease in cell length), comparator agonists: 31±3%

## C=C[C@@]1(C)CC(=O)[C@]2(O)[C@@]3(C)[C@@H](O)CCC(C)(C)[C@@H]3[C@H](O)[C@H](OC(C)=O)[C@@]2(C)O1 [forskolin]
Adenylyl cyclase
  cAMP formation above basal level: 22.1±1.86 pmol/mg protein

## PAR2 siRNA: PAR-2 (ID#s453494): sense: 5′ CCUCCUCUCUGUCAUCUGGTT 3′, antisense: 5′ CCAGAUGACAGAGAGGAGGTC3′ (chemistry not given here)
PAR2 [3]
  expression of PAR2: greatly suppressed the expression of PAR2
[4]
  effect of PAR2 siRNA on PAR2-AP-induced NF-kB and PKA catalytic subunit dissociation: blocked
PAR2 [2]; cultured cells transfected with PAR2 siRNA, PAR2-AP 1 µM 60 s, p<0.001, n = four
  inhibition of PAR2-AP-stimulated PI hydrolysis by PAR2 siRNA: 83±6%

## bisindolylmaleimide
[1]
  effect of inhibitor on initial (30 s) contraction by PAR2-AP: not affected
  effect of inhibitor on sustained (10 min) contraction by PAR2-AP: not

## cholecystokinin
[1]
  contraction (decrease in cell length), comparator agonists: 29±2%

## myristoylated PKI: membrane-permeable specific PKA inhibitory peptide, myristoylated PKI 14-22 amide (Myristoyl-SGRTGRRNA-NH2; SMILES CCCCCCCCCCCCCC(=O)N[C@@H](CO)C(=O)NCC(=O)N[C@@H](CCCNC(=N)N)C(=O)N[C@H](C(=O)NCC(=O)N[C@@H](CCCNC(=N)N)C(=O)N[C@@H](CCCNC(=N)N)C(=O)N[C@@H](CC(N)=O)C(=O)N[C@@H](C)C(N)=O)[C@@H](C)O; UniProt P61925 14-22, looked up, fragment)
Rho kinase; no effect
  basal Rho kinase activity with inhibitor alone: 3254±574 cpm/mg protein
Rho kinase
  effect of inhibitor on PAR2-AP-induced Rho kinase activity: significantly augmented

## trypsin
PAR2 [2]; trypsin 1 µM, basal 439±68 cpm/mg protein
  PI hydrolysis above basal levels, trypsin: 2653±302 cpm/mg protein

## SLIGRL [PAR2-activating peptide (PAR2-AP, SLIGRL)]
[5]
  stimulation of PI hydrolysis in freshly dispersed rabbit gastric smooth muscle cells, concentration-dependent (EC50): 2 nM
